The source of these data is patent US20110212196A1, “THERAPEUTIC OIL COMPOSITION CONTAINING CARVONE” (MAINE CONSERVATION MEDICINE CENTER, priority 2010, published 2011).

The subject of one series is fish. Particulars: in vivo; cited from earlier work.
A further series concerns elasmobranch fishes. In words: anesthesia of elasmobranch fishes by immersion. The series is classed as in vivo, spiny dogfish Squalus acanthias. Particulars: 400-600 mg/L carvone alone, oil-in-water emulsion. The source says: 3. […] For examples spiny dogfish Squalus acanthias can be anesthetized by immersion.

Each structure is given as a SMILES string.

For the molecule `O=C=O` [carbon dioxide], the safety during anesthesia/euthanasia result in the series on fish is “Some fish died during anesthesia”.
Consider `C=C(C)C1CC=C(C)C(=O)C1` (centres unmarked) [carvone], for which the anesthesia result with elasmobranch fishes is on record as “will anesthetize”.
